Each structure is given as a SMILES string.

One may read the EC50 as the concentration needed to bring the measured effect to its halfway point.

Test [1] addresses T1, delF508-CFTR (Homo sapiens, UniProt P13569, DEL508-508).
T1 construct: functional activity of the CFTR channel (Chloride ion transport) in patient derived primary human bronchial epithelial cells; host or cells: patient-derived primary human bronchial epithelial cells (HBECs), delF508-CFTR
Briefly: delF508-CFTR functional activity in primary human bronchial epithelial cells (HBECs), Multi-Transepithelial Clamp Circuit (MTECC-24) assay, equivalent short circuit current. Format: cell-based. Particulars: primary CF HBECs; for MTECC24 CFHBEC-Amax %: relative to reference combination 2 μM 3-(6-(1-(2,2-difluorobenzo[d][1,3]dioxol-5-yl)cyclopropane-1-carboxamido)-3-methylpyridin-2-yl)benzoic acid (24 h) + 0.5 μM N-(2,4-di-tert-butyl-5-hydroxyphenyl)-4-oxo-1,4-dihydroquinoline-3-carboxamide; for EC50: test compound added 24 h before assay, potentiator (S)-3-amino-6-methoxy-N-(3,3,3-trifluoro-2-hydroxy-2-methylpropyl)-5-(trifluoromethyl)picolinamide present at assay, mean of at least two replicates, read-out: MTECC24 CFHBEC-EC50. In a few lines:
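Compound acted as corrector on differentiated primary delF508-CFTR bronchial cultures, first 24 h basolaterally, then 45 min both sides before reading. Equivalent short circuit current was recorded during sequential forskolin and potentiator addition. EC50 came from 10-point, 1-in-3 dilution curves against the 0.1% DMSO baseline.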

In test [2] the target is T2, delF508-CFTR-HRP (Homo sapiens, UniProt P13569, DEL508-508).
T2 construct: expressed in transfected cells
T2 sequence (P13569 with tags, fused parts or gaps DEL508-508): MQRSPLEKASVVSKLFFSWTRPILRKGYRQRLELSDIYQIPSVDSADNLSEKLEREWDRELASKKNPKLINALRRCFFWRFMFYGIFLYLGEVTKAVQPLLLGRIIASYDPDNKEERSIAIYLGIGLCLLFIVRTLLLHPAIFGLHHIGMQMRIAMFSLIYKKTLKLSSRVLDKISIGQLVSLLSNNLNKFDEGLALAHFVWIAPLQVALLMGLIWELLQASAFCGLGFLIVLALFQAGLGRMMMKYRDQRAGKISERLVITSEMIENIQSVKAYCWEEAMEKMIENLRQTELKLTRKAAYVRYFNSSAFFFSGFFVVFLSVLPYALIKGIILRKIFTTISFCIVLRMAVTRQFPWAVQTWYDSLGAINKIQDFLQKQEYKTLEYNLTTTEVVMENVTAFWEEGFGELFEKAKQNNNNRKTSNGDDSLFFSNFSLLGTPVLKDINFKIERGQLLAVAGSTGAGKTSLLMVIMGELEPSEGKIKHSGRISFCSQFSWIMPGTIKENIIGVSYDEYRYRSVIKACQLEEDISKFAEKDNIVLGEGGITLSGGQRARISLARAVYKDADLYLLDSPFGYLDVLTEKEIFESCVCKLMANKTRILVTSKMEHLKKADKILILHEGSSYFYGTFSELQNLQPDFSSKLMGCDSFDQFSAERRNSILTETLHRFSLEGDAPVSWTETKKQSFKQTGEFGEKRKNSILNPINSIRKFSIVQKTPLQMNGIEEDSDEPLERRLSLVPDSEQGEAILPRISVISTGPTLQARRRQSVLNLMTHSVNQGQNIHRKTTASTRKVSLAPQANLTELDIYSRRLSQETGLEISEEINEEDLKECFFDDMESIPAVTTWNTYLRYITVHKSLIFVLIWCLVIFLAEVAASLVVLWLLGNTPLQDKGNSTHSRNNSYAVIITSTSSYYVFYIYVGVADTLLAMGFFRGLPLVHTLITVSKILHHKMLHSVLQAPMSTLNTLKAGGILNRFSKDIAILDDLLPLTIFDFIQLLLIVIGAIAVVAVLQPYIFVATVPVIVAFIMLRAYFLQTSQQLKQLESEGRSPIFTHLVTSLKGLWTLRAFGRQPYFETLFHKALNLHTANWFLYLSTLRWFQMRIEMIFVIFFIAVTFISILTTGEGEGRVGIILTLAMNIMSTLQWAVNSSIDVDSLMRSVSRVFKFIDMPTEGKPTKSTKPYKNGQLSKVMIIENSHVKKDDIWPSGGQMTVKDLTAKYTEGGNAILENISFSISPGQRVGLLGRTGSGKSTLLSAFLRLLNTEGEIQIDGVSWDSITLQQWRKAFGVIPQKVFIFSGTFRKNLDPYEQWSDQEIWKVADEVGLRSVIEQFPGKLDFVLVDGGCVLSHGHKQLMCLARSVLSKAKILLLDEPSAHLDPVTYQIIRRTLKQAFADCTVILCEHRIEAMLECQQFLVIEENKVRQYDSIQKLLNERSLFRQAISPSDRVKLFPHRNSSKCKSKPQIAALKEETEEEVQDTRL
Nature of the test: Measurement of delF508-CFTR-HRP surface expression in CFBE41o- cells (HRP luminescence).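 On DelF508-CFTR-HRP Amax %: percent efficacy relative to a reference CFTR corrector compound.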 Format: cell-based. The following applies: for Emax: CFBE41o-, read-out: DelF508-CFTR-HRP Amax %; for EC50: mean of at least two replicates. Put shortly:
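EC50 derived by logistic regression of triplicate surface-HRP luminescence, plate-normalized to the lowest-concentration median. Doxycycline (500 ng/mL, 48 h) induced delF508-CFTR-HRP in CFBE41o- cells; compounds then applied 24 h at 37° C, 10 μM top, 3-fold over 10 points.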

T1 sequence (P13569 with tags, fused parts or gaps DEL508-508): as above

For `Cc1ccc(C2CCCCC2)c(OC2(C(=O)NS(=O)(=O)c3cccc(N4CCCC(NC(=O)OC(C)(C)C)C4)n3)CC2)c1` (stereo not drawn) [Example 2-12, Tert-butyl (1-(6-(N-(1-(2-cyclohexyl-5-methylphenoxy)cyclopropanecarbonyl)sulfamoyl)pyridin-2-yl)piperidin-3-yl)carbamate], in test [1], the “MTECC24 CFHBEC-Amax %” value stood at 78% and the EC50 was found to be 8 nM. Further, in test [2], the Emax stood at 604% and the EC50 came out at 1530 nM.
Regarding `Cc1ccc(CC(C)C)c(OC2(C(=O)NS(=O)(=O)c3cccc(NC[C@H](C)O)n3)CC2)c1` [Example 4-9, (S)-N-((6-((2-Hydroxypropyl)amino)pyridin-2-yl)sulfonyl)-1-(2-isobutyl-5-methylphenoxy)cyclopropane-1-carboxamide], in test [1], the “MTECC24 CFHBEC-Amax %” value was 70% and the EC50 stood at 23 nM. Also, in test [2], the Emax came to 477% and the midpoint of the response, the EC50, lay at 3460 nM.
The corresponding values for `Cc1ccc(C2CCCCC2)c(OC2(C(=O)NS(=O)(=O)c3cccc(N4CC(C)(O)C4)n3)CC2)c1` [Example 2-16, 1-(2-Cyclohexyl-5-methylphenoxy)-N-((6-(3-hydroxy-3-methylazetidin-1-yl)pyridin-2-yl)sulfonyl)cyclopropanecarboxamide] are 101%, 12 nM, 642% and 2520 nM.
The corresponding values for `Cc1ccc(C2CCCCC2)c(OC2(C(=O)NS(=O)(=O)c3cccc(N4CC5(CCN5)C4)n3)CC2)c1` [Example 2-21, N-((6-(1,6-Diazaspiro[3.3]heptan-6-yl)pyridin-2-yl)sulfonyl)-1-(2-cyclohexyl-5-methylphenoxy)cyclopropanecarboxamide] are 99%, 93 nM, 252% and 3390 nM.
For `Cc1ccc(OCc2ccccc2)c(OC2(C(=O)NS(=O)(=O)c3cccc(N4CCO[C@@H](C)C4)n3)CC2)c1` [Example 6-1, (S)-1-(2-(Benzyloxy)-5-methylphenoxy)-N-((6-(2-methylmorpholino)pyridin-2-yl)sulfonyl)cyclopropanecarboxamide], in that order: 67%, 153 nM, 230% and 3870 nM.
In the case of `O=C(NS(=O)(=O)c1cccc(N2CC[C@H](O)C2)n1)C1(Oc2cc(Cl)ccc2N2CC3CCC(C3)C2)CC1` [Example 9-18, 1-(2-(3-Azabicyclo[3.2.1]octan-3-yl)-5-chlorophenoxy)-N-((6-((S)-3-hydroxypyrrolidin-1-yl)pyridin-2-yl)sulfonyl)cyclopropanecarboxamide], in test [1], the “MTECC24 CFHBEC-Amax %” value worked out at 148.1% and the EC50 was found to be 548 nM. In test [2], the Emax came out at 510% and the EC50 amounted to 1300 nM.
For `Cc1ccc(C2CCCCC2)c(OC2(C(=O)NS(=O)(=O)c3cccc(N4CCOC(C)C4)n3)CC2)c1` (stereo not drawn) [Example 2-51, 1-(2-Cyclohexyl-5-methylphenoxy)-N-((6-(2-methylmorpholino)pyridin-2-yl)sulfonyl)cyclopropane-1-carboxamide], in that order: 85%, 3 nM, 621% and 1760 nM.
The corresponding values for `Cc1ccc(-c2cccc(C(F)(F)F)c2)c(OC2(C(=O)NS(=O)(=O)c3cccc(N4CC[C@H](O)C4)n3)CC2)c1` [Example 5-1, (S)-N-((6-(3-Hydroxypyrrolidin-1-yl)pyridin-2-yl)sulfonyl)-1-((4-methyl-3′-(trifluoromethyl)-[1,1′-biphenyl]-2-yl)oxy)cyclopropane-1-carboxamide] are 88%, 16 nM, 503% and 1950 nM.
For `Cc1ccc(C2CCCC2)c(OC2(C(=O)NS(=O)(=O)c3cccc(NC[C@H](C)O)n3)CC2)c1` [Example 4-5, (S)-1-(2-Cyclopentyl-5-methylphenoxy)-N-((6-((2-hydroxypropyl)amino)pyridin-2-yl)sulfonyl)cyclopropane-1-carboxamide], in that order: 82%, 10 nM, 590% and 2810 nM.
On to `O=C(NS(=O)(=O)c1cccc(N2CC[C@H](O)C2)n1)C1(Oc2cc(Cl)ccc2NC2CCC(C(F)(F)F)CC2)CC1` (stereo partly drawn) [Example 9-19, (S)-1-(5-Chloro-2-((4-(trifluoromethyl)cyclohexyl)amino)phenoxy)-N-((6-(3-hydroxypyrrolidin-1-yl)pyridin-2-yl)sulfonyl)cyclopropanecarboxamide], for which, in test [1], the “MTECC24 CFHBEC-Amax %” value is listed as 161.2% and the EC50 turned out to be 749 nM. Moreover, in test [2], the Emax is 594% and the EC50 was 2420 nM.
The corresponding values for `Cc1ccc(C2CCCCC2)c(OC2(C(=O)NS(=O)(=O)c3cccc(N(C)C)n3)CC2)c1` [Example 2-25, 1-(2-Cyclohexyl-5-methylphenoxy)-N-((6-(dimethylamino)pyridin-2-yl)sulfonyl)cyclopropanecarboxamide] are 89%, 1 nM, 661% and 1440 nM.
The corresponding values for `Cc1ccc(C2CCCCC2)c(OC2(C(=O)NS(=O)(=O)c3cccc(N4CCO[C@@H](C)C4)n3)CC2)c1` [Example 2-52, (S)-1-(2-Cyclohexyl-5-methylphenoxy)-N-((6-(2-methylmorpholino)pyridin-2-yl)sulfonyl)cyclopropane-1-carboxamide] are 75%, 7 nM, 416% and 1290 nM.
The corresponding values for `O=C(NS(=O)(=O)c1cccc(N2CC[C@H](O)C2)n1)C1(Oc2cc(C(F)(F)F)ccc2-c2cccc(C(F)(F)F)c2)CC1` [Example 5-5, (S)-1-((3′,4-Bis(trifluoromethyl)-[1,1′-biphenyl]-2-yl)oxy)-N-((6-(3-hydroxypyrrolidin-1-yl)pyridin-2-yl)sulfonyl)cyclopropane-1-carboxamide] are 94%, 71 nM, 242% and 2050 nM.
In the case of `CC1(C)CCN(c2ccc(Cl)cc2OC2(C(=O)NS(=O)(=O)c3cccc(N4CCC(O)(c5cccc(C(F)(F)F)c5)CC4)n3)CC2)CC1` [Example 10-2, 1-(5-chloro-2-(4,4-dimethylpiperidin-1-yl)phenoxy)-N-((6-(4-hydroxy-4-(3-(trifluoromethyl)phenyl)piperidin-1-yl)pyridin-2-yl)sulfonyl)cyclopropanecarboxamide], in test [1], the “MTECC24 CFHBEC-Amax %” value came to 161.6% and the EC50 came out at 182 nM. Moreover, in test [2], the Emax came out at 746% and a half-maximal effect (EC50) was put at 460 nM.
In the case of `Cc1ccc(C2CCCCC2)c(OC2(C(=O)NS(=O)(=O)c3cccc(N4CCC(C)(NC(=O)OC(C)(C)C)CC4)n3)CC2)c1` [Example 2-8, Tert-butyl (1-(6-(N-(1-(2-cyclohexyl-5-methylphenoxy)cyclopropanecarbonyl)sulfamoyl)pyridin-2-yl)-4-methylpiperidin-4-yl)carbamate], in test [1], the “MTECC24 CFHBEC-Amax %” value worked out at 60% and the EC50 is 63 nM. Moreover, in test [2], the Emax amounted to 716% and the EC50 is 540 nM.
The corresponding values for `Cc1ccc(C2CCCCC2)c(OC2(C(=O)NS(=O)(=O)c3cccc(N4CCC(C(=O)OC5CCCC5)CC4)n3)CC2)c1` [Example 2-7] are 63%, 16 nM, 389% and 730 nM.
For `Cc1ccc(-c2cccc(C(F)F)c2)c(OC2(C(=O)NS(=O)(=O)c3cccc(N4CC[C@H](O)C4)n3)CC2)c1` [Example 5-9, (S)-1-((3′-(Difluoromethyl)-4-methyl-[1,1′-biphenyl]-2-yl)oxy)-N-], in that order: 87%, 76 nM, 298% and 3110 nM.
For `Cc1ccc(C2CCCCC2)c(OC2(C(=O)NS(=O)(=O)c3cccc(N4CCC(C)(C(N)=O)CC4)n3)CC2)c1` [Example 2-14, 1-(6-(N-(1-(2-cyclohexyl-5-methylphenoxy)cyclopropanecarbonyl)sulfamoyl)pyridin-2-yl)-4-methylpiperidine-4-carboxamide], in that order: 75%, 31 nM, 319% and 2780 nM.

These data come from patent publication US20220033407A1, “N-(pyridin-2-ylsulfonyl)cyclopropanecarboxamide Derivatives and their Use in the Treatment of Disease” (NOVARTIS AG, priority 2018, published 2022).
